Experimental data: PMC11505029, “Isatin Bis-Imidathiazole Hybrids Identified as FtsZ Inhibitors with On-Target Activity Against Staphylococcus aureus” (Antibiotics, 2024)
“Also recorded” adds a separate entry of the source.

Assays:
S. aureus ATCC 25923 = test: broth microdilution antimicrobial activity, S. aureus reference strain; type: cell-based, Staphylococcus aureus
Method: (§1) Reference bacterial strains of Staphylococcus aureus (ATCC 25923), Escherichia coli (ATCC 25922), and Candida albicans (ATCC 10231) were used in this study as Gram-positive, Gram-negative, and fungal models, respectively. These reference strains were purchased from the American Type Culture Collection (ATCC, Manassas, VA, USA); bacterial cultures were routinely grown at 37 °C on 5% blood agar plate, while fungal cultures on Sabouraud Dextrose Agar (Biolife Italiana S.r.l., Milan, Italy).
(§2) The dry powder of the isatin derivatives was resuspended in dimethylsulfoxide (DMSO) at 20 mM and used as stock solutions. For biological investigations, compounds were used in the range 100–0.78 µM, and the solvent in the corresponding percentage range.
(§3) The antimicrobial activity of the compounds was assessed by a well-established broth microdilution procedure in microtiter plates and in compliance with the Clinical and laboratory Standard Institute (CLSI) guidelines (Clinical and Laboratory Standards Institute, Wayne, PA, USA). In short, microbial inocula were prepared at 0.5 McFarland in PBS and, subsequently, bacterial suspensions were diluted 1:200 in Mueller–Hinton broth (Sigma-Aldrich, St. Louis, MO, USA), while fungal inoculum was diluted 1:20 in RPMI-1640 medium (Gibco®, ThermoFisher Scientific Inc., Waltham, MA, USA), containing 2% glucose and 0.3% levo-glutamine buffered to pH 7.0 with 0.165 M 3-(N-morpholino)propanesulfonic acid (MOPS). A total of 100 µL of these microbial suspensions were introduced in a 96-well microplate and incubated with 100 µL of the compounds, two-fold serially diluted in the range of 100–0.19 µM. Positive controls (microbial suspensions in regular media), negative controls (only compounds), and solvent controls (microbial suspensions incubated with DMSO dilutions) were included in the tests. The plate was incubated at 37 °C for 24 h, and subsequently, the optical density at 630 nm (OD630nm) was spectrophotometrically measured. Each experiment was carried out with three technical replicates (i.e., three wells per sample) and repeated at least two times for statistical power. […] IC50 values, corresponding to the concentration of the compound giving rise to an inhibition of growth of 50%, were obtained by interpolation on dose–response curves generated by plotting the percentages of growth inhibition, relative to the positive control (set to 100% of growth), as a function of the tested concentrations (on a logarithm scale). Statistical analysis was carried out using GraphPad Prism version 9.4.1 for Windows (GraphPad Software, San Diego, CA, USA, www.graphpad.com).

E. coli ATCC 25922 = test: broth microdilution antimicrobial activity, E. coli reference strain; type: cell-based, Escherichia coli; settings: 100 μM, growth relative to positive control, mean ± SD
Method: as §1, §2, §3

[1] = system: human red blood cells (hRBCs); test: hemolytic assay; type: cell-based; settings: for Hemolytic activity, percentage values: mean ± SD
Method: The hemolytic activity of some selected compounds was evaluated as the amount of hemoglobin released by the disruption of human red blood cells (hRBCs). For the experiments, fresh hRBCs, obtained from peripheral blood of anonymous blood donors available for research purposes, were collected by centrifugation at 1500 g for 10 min, washed 3 times with PBS, and resuspended to a final concentration of 4% w/v hRBCs in PBS. Then, 100 µL of hRBCs suspension and an equal volume of the 2-fold dilutions of the […] were mixed in a 96-well plate and incubated for 1 h at 37 °C. […] Untreated hRBCs (incubated with PBS) and hRBCs incubated with 1% Triton X-100 were employed as negative and positive controls, respectively. The hemolysis percentage was calculated as [OD405nm (sample) − OD405nm (negative control)]/[OD405nm (positive control) − OD405nm (negative control)] × 100. Minimal hemolytic concentrations (MHCs) were defined as the compound concentrations causing 10% hemolysis.

S. aureus MRSA 1 = test: dose-response against clinical isolate MRSA 1; type: cell-based; settings: Staphylococcus aureus, mean [95% confidence interval]
Method: (§4) The antimicrobial activity of the compounds was assessed by a well-established broth microdilution procedure in microtiter plates and in compliance with the Clinical and laboratory Standard Institute (CLSI) guidelines (Clinical and Laboratory Standards Institute, Wayne, PA, USA). In short, microbial inocula were prepared at 0.5 McFarland in PBS and, subsequently, bacterial suspensions were diluted 1:200 in Mueller–Hinton broth (Sigma-Aldrich, St. Louis, MO, USA), while fungal inoculum was diluted 1:20 in RPMI-1640 medium (Gibco®, ThermoFisher Scientific Inc., Waltham, MA, USA), containing 2% glucose and 0.3% levo-glutamine buffered to pH 7.0 with 0.165 M 3-(N-morpholino)propanesulfonic acid (MOPS). A total of 100 µL of these microbial suspensions were introduced in a 96-well microplate and incubated with 100 µL of the compounds, two-fold serially diluted in the range of 100–0.19 µM. Positive controls (microbial suspensions in regular media), negative controls (only compounds), and solvent controls (microbial suspensions incubated with DMSO dilutions) were included in the tests. The plate was incubated at 37 °C for 24 h, and subsequently, the optical density at 630 nm (OD630nm) was spectrophotometrically measured. Each experiment was carried out with three technical replicates (i.e., three wells per sample) and repeated at least two times for statistical power. […]

S. aureus MRSA 2 = test: dose-response against clinical isolate MRSA 2; type: cell-based; settings: Staphylococcus aureus, mean [95% confidence interval]
Method: as §4

S. aureus MRSA 3 = test: dose-response against clinical isolate MRSA 3; type: cell-based; settings: Staphylococcus aureus, mean [95% confidence interval]
Method: as §4

S. aureus MRSA 5 = test: dose-response against clinical isolate MRSA 5; type: cell-based; settings: Staphylococcus aureus, mean [95% confidence interval]
Method: as §4

[2] = system: S. aureus ATCC 25923 biofilm; test: antibiofilm activity, crystal violet staining; type: cell-based, Staphylococcus aureus; settings: 200–25 µM; inhibition of biofilm production; CV staining
Method: For the evaluation of the bacterial biofilm formation, an established protocol with minor modifications was used. In short, a bacterial suspension of S. aureus ATCC 25923 was prepared in TSB (Tryptic Soy broth (TSB, Sigma-Aldrich, St. Louis, MO, USA) supplemented with 1% of glucose and adjusted to a final density of 10^5 CFU/mL. Aliquots of 100 µL of the culture were transferred to a 96-well flat-bottom polystyrene microplate, and then incubated at 37 °C for 90 min to promote bacterial adhesion. Thereafter, wells were slowly rinsed with PBS to remove non-attached cells, and 100 µL of medium containing the 2-fold serial dilutions of the compounds were added. After incubation at 37 °C for 24 h, the free-floating cells were removed, and the biofilms were carefully washed with PBS, and incubated for 1 h at 60 °C. Bacterial biomass was quantified by a standardized crystal violet (CV) staining. Briefly, 100 µL of CV solution (0.1% in water) were added to each well containing a completely air-dried biofilm, and incubated for 30 min at 37 °C. […] Finally, the colored supernatants were transferred to a new microplate and the OD550nm was read. The inhibitory effect of the compounds on biofilm production was evaluated in comparison to the positive control (S. aureus grown in absence of compounds), and negative control (only medium).

Structure (SMILES): O=C1Nc2cc(OC(F)(F)F)ccc2C1(c1c(Cl)nc2sccn12)c1c(Cl)nc2sccn12 [Compound 11, 3,3-bis(6-Chloroimidazo[2,1-b]thiazol-5-yl)-6-(trifluoromethoxy)indolin-2-one]
- SI (selectivity index, CC50/IC50) (S. aureus ATCC 25923; CC50 Vero / IC50 S. aureus): 4.6
- IC50 (S. aureus ATCC 25923; Staphylococcus aureus, ATCC25923, S. aureus ATCC 25923, mean [95% confidence interval]): 13.8 µM
- Microbial growth, E. coli (E. coli ATCC 25922): did not inhibit the growth
- activity at 100 µM (E. coli ATCC 25922; Escherichia coli, ATCC25922, read-out: Microbial growth, E. coli): 108 ± 2.4%
- Hemolytic activity, percentage values ([1]; 1.56 µM): 0.9 ± 1.8%
- Hemolytic activity, percentage values ([1]; 3.125 µM): 1.1 ± 1.2%
- Hemolytic activity, percentage values ([1]; 6.25 µM): 2.3 ± 0.2%
- Hemolytic activity, percentage values ([1]; 12.5 µM): 2.2 ± 0.5%
- Hemolytic activity, percentage values ([1]; 25 µM): 1.8 ± 1.5%
- Hemolytic activity, percentage values ([1]; 50 µM): 0.7 ± 1.5%
- Hemolytic activity, percentage values ([1]; 100 µM): 1.1 ± 0.4%
- hemolytic activity ([1]; range 100–1.56 µM): did not show an appreciable hemolytic activity; also recorded: no hemolytic property
- IC50 (S. aureus MRSA 1): 21.4 µM
- IC50 (S. aureus MRSA 2): 27.5 µM
- IC50 (S. aureus MRSA 3): 8.7 µM
- IC50 (S. aureus MRSA 5): 21.2 µM
- biofilm biomass compared to the untreated control [2]: < 10%
